From patent US4350676A, “Ophthalmic use of carboxyfluorescein” (priority 1981, dated 1982)
Like-named read-outs stand apart in the source and are kept apart here.

Tests used:
[1] = Dialyzable (unbound) fraction of dye in human plasma; format: in vitro ADME; conditions: human plasma, 37° C., read-out: Dialyzable fraction (mean ± S.E.M.)
Procedure: (§1) Measurement of unbound dye in plasma: Plasma was separated by centrifugation from the heparinized blood obtained from rats injected with sodium fluorescein or carboxyfluorescein in the intraocular dye distribution study. The plasma was dialyzed for 24 hours at 37° C. against 0.1 M phosphate buffer at pH 7.4 using cellulose dialysis tubing with a 3500 molecular weight cut-off. Dye concentration was measured in the dialysate spectrofluorophotometrically and from this value calculated the unbound plasma dye concentration.
(§2) To study the fraction of unbound dye in human plasma, there was added small aliquots of carboxyfluorescein and sodium fluorescein solutions to plasma separated from heparinized human blood so that the final dye concentration in the plasma was between 10^-3 M and 10^-6 M. The plasma/dye mixture was incubated for 2 hours at 37° C. Then using the dialysis and measuring procedures described above, the ratio of unbound dye to total dye in the plasma mixture was calculated.

[2] = tested on: active transport system in the anterior uvea; conditions: outward, from eye to blood; cited from earlier work
[3] = tested on: blood-ocular barriers (choroid and retina); format: in vivo, male Wistar rats; conditions: rat, iv
Description: To determine whether a less membrane permeable dye than fluorescein has value as a probe of the structural and functional integrity of the blood-ocular barriers we have undertaken studies of carboxyfluorescein, a compound with the same fluorescence characteristics as fluorescein, but with lower lipid solubility at physiological pH (7). In particular, the lipid solubility of carboxyfluorescein was compared with fluorescein by measuring dye partitioning between octanol and aqueous buffer at different pH to determine solubility behavior relevant to the permeability of cell membranes in vivo. Studies were then made of the ocular distribution carboxyfluorescein in rats after intravenous injection using quantitative fluorescence microscopy; and compared to the results for fluorescein. The plasma binding of carboxyfluorescein was also studied and compared to fluorescein.
(§3) Intra-ocular dye distribution: Young male Wistar rats (180-250 g) under pentobarital anesthesia (50 mg/kg i.p.) were injected intravenously with carboxyfluorescein or fluorescein solutions (pH 7.4) at doses of 12.5, 62.5 and 125 mg/kg. One minute after dye injection, the eyes were removed and immediately frozen in isopentane cooled to -110° C. by a liquid nitrogen bath. Between 2 and 4 minutes after injection a blood sample from the abdominal aorta was drawn into a heparinized syringe for determination of the concentration of unbound dye in plasma. The frozen eyes were dried under vacuum at -35° C. and embedded in paraffin. After embedding the eyes were stored under vacuum at -20° C. to minimize the development of autofluorescence. Additional eyes from normal rats not injected with dye were processed and stored identically for measurement of tissue autofluorescence. Immediately prior to examination with the fluorescence microscope, sections were cut at a thickness of 12 microns, placed on glass slides, and mounted with xylene.
Fluorescence intensity in small areas of the tissue sections was measured with a 450 u fiber optic probe placed in the object plane of an ocular and connected to a photomultiplier tube. An amplified signal from the photomultiplier was recorded with a digital voltmeter. The illumination system consisted of a 50 W high pressure mercury light source and an epifluorescence condensor equipped with a 455-490 nm exciter filter, a 510 nm dichroic beam splitter, and a 520 nm barrier filter. All measurements were performed using a 63X oil objective (N.A. 1.4). With this magnification, an aperture in the object plane restricted the area of illumination to a circle, 24 microns in diameter. The fiber optic probe covered a specimen field, 6 microns in diameter, centered in the larger illuminated field.
Fluorescence intensity of four tissue layers was recorded in the posterior segment: the inner plexiform, outer nuclear, and photoreceptor outer segment layers of the retina, and the choriocapillaris. Each of these layers is of sufficient width so that the illuminated area encompassed a homogeneous field. Foci of intense fluorescence, such as dye filled retinal capillaries, within the illumination field but outside the detection area of the fiber optic probe, can increase the recorded signal by light scatter into the detection area. Fields containing such bright foci were avoided. Examination of the section, location of the area for measurement, and focusing of the image was accomplished under dim green illumination from a tungsten lamp. The illumination was then switched to the fluorescence system, and the maximum value of fluorescence intensity was recorded as voltage. Measurements were made at 12 sites in each layer to obtain the average fluorescence intensities for an individual eye. These values were then corrected for tissue autofluorescence by subtracting the average fluorescence intensity of each layer in eyes from animals not injected with dye. […]

[4] = cited from earlier work
cornea = conditions: topical; cited from earlier work
[5] = Measurement of unbound dye in plasma of injected rats (dialysis); format: in vivo, male Wistar rats; conditions: rat; for Plasma unbound dye concentration: blood 2-4 min after injection
Procedure: as §3, §1

[6] = cited from earlier work; remark: listed apart in the source
physchem = conditions: for logD at 10 µM / logD at 1000 µM / Partition ratio octanol/buffer: octanol/0.1 m phosphate buffer
Procedure: Octanol/buffer partition ratios: The ratio of concentrations of a given solute in equilibrium distribution between two immiscible solvents is termed the partition coefficient. This expression properly refers only to the distribution of a single molecular species between the two phases. […] Total dye concentration in the two solvent phases was measured without correction for ionization or self-association and the recommended term, "partition ratio", is used to refer to these uncorrected distributions.
Carboxyfluorescein (Eastman Kodak Co., Rochester) or sodium fluorescein (Sigma Chemical Co., St. Louis) was dissolved at concentrations of 10^-3 M or 10^-5 M in octanol-saturated 0.1 M phosphate buffer at different pH values between 6.40 and 8.03. The aqueous dye solutions were equilibrated with equal volumes of buffer-saturated octanol by 100 inversions during 5 minutes, and the phases were separated by centrifugation. Dye concentrations were measured spectrofluorophotometrically at excitation and emmision wavelengths of 487 and 512 nm, respectively, with an Aminco-Bowman Ratio Spectrofluorophotometer.
Two methods were used to calculate partition ratios. In the first, the dye concentration in the aqueous phase was measured before (Cb) and after (Ca) partitioning, and the ratio was obtained from the equation:
P.R.=Coct/Caq=(Cb -Ca)/Ca,
where Coct and Caq are the dye concentration in the octanol and aqueous phases respectively after equilibration. In the second method, concentration in the octanol phase was determined by extracting the dye from octanol with an equal volume 0.1 N NaOH. […] Therefore, dye concentration in the first base extract was accepted as the concentration in the octanol phase and calculated the partition ratio from the equation: […]

human plasma proteins = test: Dialyzable (unbound) fraction of dye in human plasma; format: in vitro ADME; conditions: for Dialyzable fraction (mean ± S.E.M.): human, plasma
Procedure: as §1, §2

rabbit eyes = tested on: rabbit eyes
Procedure: Carboxyfluorescein was prepared as a 1% solution in water, buffered to pH 7.4. Carboxyfluorescein was made into strip form, using strips of #1 filter paper, impregnated with carboxyfluorescein and allowed to dry. The carboxyfluorescein was applied to rabbit eyes both with the paper impregnated strip and also as a 1% topical drop.

In the case of `O=C1OC2(c3ccc(O)cc3Oc3cc(O)ccc32)c2ccccc21` [fluorescein], the fraction unbound at 1000 µM ([1]; 10^-3 M) is reported as 0.3 ± 0.02, the fraction unbound at 100 µM ([1]; 10^-4 M) is reported as 0.33 ± 0.03 and the fraction unbound at 10 µM ([1]; 10^-5 M) is reported as 0.33 ± 0.01. For the same compound, the fraction unbound at 1 µM ([1]; 10^-6 M) was 0.32 ± 0.02, the “Substrate for active transport” value [2] was “serves as a substrate for an active transport system in the anterior uvea” and the “Fluorescence of iris epithelium” value ([3]; in vivo) was “brightly stains the cells of the ciliary and iris epithelium”. The “Outer segment layer values relative to deeper retinal layers” value ([3]; in vivo) was “twice as high”, the “Tissue relative fluorescence intensity, IPL (mean ± S.E.M.)” value ([3]; in vivo, 12.5 mg/kg) was “.021” and the “Tissue relative fluorescence intensity, ONL (mean ± S.E.M.)” value ([3]; in vivo, 12.5 mg/kg) was “.011 ± .001”. For the same compound, the “Tissue relative fluorescence intensity, choroid (mean ± S.E.M.)” value ([3]; in vivo, 12.5 mg/kg) was “.57 ± .03”, the “Tissue relative fluorescence intensity, outer segments (mean ± S.E.M.)” value ([3]; in vivo, 12.5 mg/kg) was “.032 ± .003” and the “Tissue relative fluorescence intensity, IPL (mean ± S.E.M.)” value ([3]; in vivo, 62.5 mg/kg) was “.086”. For the same compound, the “Tissue relative fluorescence intensity, ONL (mean ± S.E.M.)” value ([3]; in vivo, 62.5 mg/kg) was “.076 ± .004”, the “Tissue relative fluorescence intensity, choroid (mean ± S.E.M.)” value ([3]; in vivo, 62.5 mg/kg) was 2.7 ± .2 and the “Tissue relative fluorescence intensity, outer segments (mean ± S.E.M.)” value ([3]; in vivo, 62.5 mg/kg) was “.153 ± .008”. For the same compound, the “Tissue relative fluorescence intensity, IPL (mean ± S.E.M.)” value ([3]; in vivo, 125 mg/kg) was “.150”, the “Tissue relative fluorescence intensity, ONL (mean ± S.E.M.)” value ([3]; in vivo, 125 mg/kg) was “.196 ± .011” and the “Tissue relative fluorescence intensity, choroid (mean ± S.E.M.)” value ([3]; in vivo, 125 mg/kg) was 5.7 ± .5. For the same compound, the “Tissue relative fluorescence intensity, outer segments (mean ± S.E.M.)” value ([3]; in vivo, 125 mg/kg) was “.452 ± .021”, the “Outer segment layer values relative to choroid” value ([3]; in vivo, 1 min) was 6-8% and the “Partition coefficient octanol/artificial sea water” value [4] was 0.6. The “Corneal penetration and artificial aqueous flare” value (cornea) was “its ready penetration through the cornea into the aqueous humor creates an artificial aqueous flare”, the “Plasma unbound dye concentration” value ([5]; i.v. 12.5 mg/kg) was “.04 ± .03 mg/mL” and the “Plasma unbound dye concentration” value ([5]; i.v. 62.5 mg/kg) was “.18 ± .01 mg/mL”. The “Plasma unbound dye concentration” value ([5]; i.v. 125 mg/kg) was “.29 ± .01 mg/mL”, the “pKa, divalent/monovalent anion” value ([6]; dianion/monoanion) was 6.7 and the “pKa, monoanion/neutral molecule” value ([6]; second listed pKa) was 4.4. For the same compound, the “pKa, neutral molecule/cation” value ([6]; third listed pKa) was 2.2, the logD at 10 µM (physchem; pH 6.42) was 1.58 and the logD at 1000 µM (physchem; pH 6.42) was 1.54. The logD at 10 µM (physchem; pH 6.87) was 0.69, the logD at 1000 µM (physchem; pH 6.87) was 0.708 and the logD at 10 µM (physchem; pH 7.38) was -0.194. The logD at 1000 µM (physchem; pH 7.38) was -0.292, the logD at 10 µM (physchem; pH 8.03) was -1.52 and the logD at 1000 µM (physchem; pH 8.03) was -1.42. The “pH at which partition ratio reaches 1.0” value (physchem; octanol/buffer) was 7.25.

For carboxyfluorescein, the “Binding to human plasma proteins compared with fluorescein” value (human plasma proteins) was “consistently less bound to human plasma proteins than fluorescein”, the “Dialyzable fraction (mean ± S.E.M.)” value (human plasma proteins; 1 µM) was “.46 ± .01” and the “Dialyzable fraction (mean ± S.E.M.)” value (human plasma proteins; 10 µM) was “.51 ± .03”. The “Dialyzable fraction (mean ± S.E.M.)” value (human plasma proteins; 100 µM) was “.50 ± .01”, the “Dialyzable fraction (mean ± S.E.M.)” value (human plasma proteins; 1000 µM) was “.61 ± .02” and the “Fluorescence of iris stroma” value ([3]; in vivo) was “the intensity of fluorescence is less than that seen with fluorescein”. The “Tissue relative fluorescence intensity, IPL (mean ± S.E.M.)” value ([3]; in vivo, 62.5 mg/kg) was “.001”, the “Tissue relative fluorescence intensity, ONL (mean ± S.E.M.)” value ([3]; in vivo, 62.5 mg/kg) was “.002 ± .001” and the “Tissue relative fluorescence intensity, choroid (mean ± S.E.M.)” value ([3]; in vivo, 62.5 mg/kg) was 8.0 ± .4. The “Tissue relative fluorescence intensity, outer segments (mean ± S.E.M.)” value ([3]; in vivo, 62.5 mg/kg) was “.008 ± .001”, the “Tissue relative fluorescence intensity, IPL (mean ± S.E.M.)” value ([3]; in vivo, 125 mg/kg) was “.002” and the “Tissue relative fluorescence intensity, ONL (mean ± S.E.M.)” value ([3]; in vivo, 125 mg/kg) was “.003 ± .001”. The “Tissue relative fluorescence intensity, choroid (mean ± S.E.M.)” value ([3]; in vivo, 125 mg/kg) was 7.8 ± .8, the “Tissue relative fluorescence intensity, outer segments (mean ± S.E.M.)” value ([3]; in vivo, 125 mg/kg) was “.006 ± .003” and the “Permeability of blood-ocular barriers to intravascular dye” value ([3]; not told) was “markedly less permeable to intravascular carboxyfluorescein than to fluorescein”. For the same compound, the “Plasma unbound dye concentration compared with fluorescein” value ([5]; in vivo, iv) was “significantly higher than in animals injected with fluorescein”, the Persistence of stain (rabbit eyes; corneal abrasion, observation 30 to 45 minutes) was “persisted but lessened in intensity” and the “Staining of corneal epithelial defect” value (rabbit eyes; experimental corneal abrasion) was “densely stained the corneal epithelial defect”. For the same compound, the “Hyperemia or corneal changes” value (rabbit eyes; in vivo) was “no apparent hyperemia or corneal changes”, the “Reaction / subjective discomfort” value (rabbit eyes; in vivo) was “did not react in a negative fashion” and the “Visibility in tear film” value (rabbit eyes; topical, blue light) was “seen in the tear film”. For the same compound, the Partition ratio octanol/buffer (physchem; 10 µM, pH 6.42) was “.037”, the Partition ratio octanol/buffer (physchem; 10 µM, pH 6.87) was “.0030” and the Partition ratio octanol/buffer (physchem; 10 µM, pH 7.38) was “.0007”. For the same compound, the Partition ratio octanol/buffer (physchem; 1000 µM, pH 6.42) was “.033”, the Partition ratio octanol/buffer (physchem; 1000 µM, pH 6.87) was “.0028” and the Partition ratio octanol/buffer (physchem; 1000 µM, pH 7.38) was “.0008”. For the same compound, the Partition ratio octanol/buffer (physchem; 1000 µM, pH 8.03) was “.00006” and the Partition ratio (physchem; octanol/phosphate buffer, pH 6.4) was “below 0.1”.
